Laboratory results published in patent US4927922A, “7β-(substituted)amino-3-substituted cephalosporanic acids and esters” (American Cyanamid Company, priority 1988, dated 1990).
Converted amounts (≈) assume the structure as drawn. Read-outs that look alike come from different tables or passages of the source.

What was measured:
Test in all cases: in vitro agar dilution test (MIC)
Type in all cases: cell-based
[1] = test system: Klebsiella pneumoniae MOR 84-4; settings: MOR844
Method: (§1) The compounds of the present invention are active antibacterial agents as established in the in vitro agar dilution test using Mueller-Hinton agar. The test compounds were dissolved in a mixture of dimethyl sulfoxide and aqueous sodium bicarbonate and applied as 1 ml of drug solution plus 9 ml of agar per plate. The innoculum was a 5 hour TSB shake culture diluted to 10^-2 with Mueller-Hinton broth and applied to the plates with a Steers' Replicator.
(§2) The results of this test on representative compounds of this invention (identified by Example Number) against a variety of microorganisms appear in Tables I and II in terms of minimal inhibitory concentration (MIC) in mcg/ml together with Cefotaxime, Cephalothin and Ampicillin as positive controls.

[2] = test system: Escherichia coli No. 311 N.A.; settings: Mueller-Hinton agar
Method: as §1, §2

[3] = test system: Enterobacter aerogenes VGH 84-36; settings: Klebsiella aerogenes, VGH8436
Method: as §1, §2

[4] = test system: Staphylococcus epidermidis IO 83-58; settings: IO8358
Method: as §1, §2

[5] = test system: Pseudomonas aeruginosa 12-4-4 (MP)
Method: as §1, §2

[6] = test system: Serratia marcesans F 35 (MP)
Method: as §1, §2

[7] = test system: Enterobacter cloacae K 84-10; settings: K8410
Method: as §1, §2

[8] = test system: Escherichia coli CMC 84-16; settings: CMC8416
Method: as §1, §2

[9] = test system: Morganella morganii CMC 84-37; settings: CMC8437
Method: as §1, §2

[10] = test system: Staphylococcus aureus CMC 83-132; settings: CMC83132
Method: as §1, §2

[11] = test system: Staphylococcus aureus CMC 83-128; settings: CMC83128
Method: as §1, §2

[12] = test system: Escherichia coli ATCC 25922; settings: ATCC25922, Mueller-Hinton agar, Table II
Method: as §1, §2

[13] = test system: Acinetobacter calcoaceticus MOR 84-43; settings: MOR8443
Method: as §1, §2

[14] = test system: Staphylococcus aureus CMC 83-131; settings: CMC83131
Method: as §1, §2

[15] = test system: Escherichia coli CMC 84-11; settings: CMC8411, Mueller-Hinton agar
Method: as §1, §2

[16] = test system: Klebsiella pneumoniae AD (MP)
Method: as §1, §2

[17] = test system: Klebsiella oxytoca MOR 84-28; settings: MOR8428
Method: as §1, §2

[18] = test system: Pseudomonas aeruginosa VGH 84-4; settings: VGH844
Method: as §1, §2

Enterococcus VGH 84-65 = settings: VGH8465
Method: as §1, §2

[19] = test system: Escherichia coli No. 311(Parent); settings: Mueller-Hinton agar
Method: as §1, §2

[20] = test system: Staphylococcus saprophyticus VGH 84-50; settings: VGH8450
Method: as §1, §2

[21] = test system: Enterobacter cloacae VGH 84-37; settings: VGH8437
Method: as §1, §2

[22] = test system: Staphylococcus aureus Smith (MP)
Method: as §1, §2

[23] = test system: Serratia marcesans K 84-18; settings: K8418
Method: as §1, §2

[24] = test system: Staphylococcus aureus ATCC 25923; settings: ATCC25923
Method: as §1, §2

[25] = test system: Staphylococcus epidermidis CMC 83-135; settings: CMC83135
Method: as §1, §2

[26] = test system: Morganella morganii VGH 84-11; settings: VGH8411
Method: as §1, §2

[27] = test system: Proteus rettgheri CMC 84-41
Method: as §1, §2

[28] = Klebsiella pneumoniae MOR 84-4, Mueller-Hinton agar, read-out: MIC
[29] = Staphylococcus epidermidis IO 83-58, Mueller-Hinton agar, read-out: MIC
[30] = Staphylococcus aureus CMC 83-132, Mueller-Hinton agar, read-out: MIC
[31] = Staphylococcus aureus CMC 83-128, Mueller-Hinton agar, read-out: MIC
[32] = Acinetobacter calcoaceticus MOR 84-43, Mueller-Hinton agar, read-out: MIC
[33] = Staphylococcus aureus CMC 83-131, Mueller-Hinton agar, read-out: MIC
[34] = Klebsiella pneumoniae AD (MP), Mueller-Hinton agar, Table II, read-out: MIC
[35] = Klebsiella oxytoca MOR 84-28, Mueller-Hinton agar, read-out: MIC
[36] = Enterococcus VGH 84-65, Mueller-Hinton agar, read-out: MIC
[37] = Staphylococcus saprophyticus VGH 84-50, Mueller-Hinton agar, read-out: MIC
[38] = Staphylococcus aureus Smith (MP), Mueller-Hinton agar, Table II, read-out: MIC
[39] = Serratia marcesans K 84-18, Mueller-Hinton agar, read-out: MIC
[40] = Staphylococcus aureus ATCC 25923, Mueller-Hinton agar, Table II, read-out: MIC
[41] = Staphylococcus epidermidis CMC 83-135, Mueller-Hinton agar, read-out: MIC
[42] = Proteus rettgheri CMC 84-41, Mueller-Hinton agar, read-out: MIC
[43] = Enterobacter aerogenes VGH 84-36, Mueller-Hinton agar, read-out: MIC
[44] = Pseudomonas aeruginosa 12-4-4 (MP), Mueller-Hinton agar, Table II, read-out: MIC
[45] = Serratia marcesans F 35 (MP), Mueller-Hinton agar, read-out: MIC
[46] = Enterobacter cloacae K 84-10, Mueller-Hinton agar, read-out: MIC
[47] = Escherichia coli CMC 84-16, Mueller-Hinton agar, read-out: MIC
[48] = Morganella morganii CMC 84-37, Mueller-Hinton agar, read-out: MIC
[49] = Pseudomonas aeruginosa VGH 84-4, Mueller-Hinton agar, read-out: MIC
[50] = Enterobacter cloacae VGH 84-37, Mueller-Hinton agar, read-out: MIC
[51] = Morganella morganii VGH 84-11, Mueller-Hinton agar, read-out: MIC

CC1(C)S[C@@H]2[C@H](NC(=O)[C@H](N)c3ccccc3)C(=O)N2[C@H]1C(=O)O [Ampicillin, reference compound]
MIC [1, 28]: 32 µg/mL (≈ 91.6 µM)
MIC [2]: 2 µg/mL (≈ 5.72 µM)
MIC [3]: 256 µg/mL (≈ 733 µM)
MIC [4, 29]: 16 µg/mL (≈ 45.8 µM)
MIC ([5]; Pseudomonas aeruginosa): > 256 µg/mL
MIC ([6]; Serratia): > 256 µg/mL
MIC ([7]; Enterobacter cloacae): > 256 µg/mL
MIC ([8]; Escherichia coli): > 256 µg/mL
MIC ([9]; Morganella morganii): 256 µg/mL (≈ 733 µM)
MIC [10, 30]: 1 µg/mL (≈ 2.86 µM)
MIC [11, 31]: ≤ 0.12 µg/mL
MIC [12]: 4 µg/mL (≈ 11.4 µM)
MIC [13, 32]: 32 µg/mL (≈ 91.6 µM)
MIC [14, 33]: 2 µg/mL (≈ 5.72 µM)
MIC [15]: 4 µg/mL (≈ 11.4 µM)
MIC [16, 34]: 0.25 µg/mL (≈ 0.715 µM)
MIC [17, 35]: 32 µg/mL (≈ 91.6 µM)
MIC ([18]; Pseudomonas aeruginosa): > 256 µg/mL
MIC (Enterococcus VGH 84-65; [36]): 1 µg/mL (≈ 2.86 µM)
MIC [19]: 2 µg/mL (≈ 5.72 µM)
MIC [20, 37]: ≤ 0.12 µg/mL
MIC ([21]; Enterobacter cloacae): > 256 µg/mL
MIC [22, 38]: ≤ 0.12 µg/mL
MIC [23, 39]: 64 µg/mL (≈ 183 µM)
MIC [24, 40]: ≤ 0.12 µg/mL
MIC [25, 41]: ≤ 0.12 µg/mL
MIC ([26]; Morganella morganii): > 256 µg/mL
MIC [27, 42]: 0.5 µg/mL (≈ 1.43 µM)

CCc1snnc1SCC1=C(C(=O)O)N2C(=O)[C@@H](NC(=O)Cc3cccs3)[C@H]2SC1 [Example 10, (6R-trans)-3-[[(5-Ethyl-1,2,3-thiadiazol-4-yl)thio]methyl]-8-oxo-7-[(2-thienylacetyl)amino]-5-thia-1-azabicyclo[4.2.0]oct-2-ene-2-carboxylic acid]
MIC [1, 28]: 64 µg/mL (≈ 133 µM)
MIC [2]: 64 µg/mL (≈ 133 µM)
MIC [3, 43]: > 256 µg/mL
MIC [4, 29]: 2 µg/mL (≈ 4.14 µM)
MIC [5, 44]: > 256 µg/mL
MIC [6, 45]: > 256 µg/mL
MIC [7, 46]: > 256 µg/mL
MIC [8, 47]: 128 µg/mL (≈ 265 µM)
MIC [9, 48]: > 256 µg/mL
MIC [10, 30]: 32 µg/mL (≈ 66.3 µM)
MIC [11, 31]: 1 µg/mL (≈ 2.07 µM)
MIC [12]: 64 µg/mL (≈ 133 µM)
MIC [13, 32]: > 256 µg/mL
MIC [14, 33]: 32 µg/mL (≈ 66.3 µM)
MIC [15]: 128 µg/mL (≈ 265 µM)
MIC [16, 34]: 16 µg/mL (≈ 33.2 µM)
MIC [17, 35]: 128 µg/mL (≈ 265 µM)
MIC [18, 49]: > 256 µg/mL
MIC (Enterococcus VGH 84-65; [36]): 32 µg/mL (≈ 66.3 µM)
MIC [19]: 64 µg/mL (≈ 133 µM)
MIC [20, 37]: 1 µg/mL (≈ 2.07 µM)
MIC [21, 50]: > 256 µg/mL
MIC [22, 38]: ≤ 0.12 µg/mL
MIC [23, 39]: > 256 µg/mL
MIC [24, 40]: 0.5 µg/mL (≈ 1.04 µM)
MIC [25, 41]: ≤ 0.12 µg/mL
MIC [26, 51]: > 256 µg/mL
MIC [27, 42]: 4 µg/mL (≈ 8.29 µM)

CC(=O)OCC1=C(C(=O)O)N2C(=O)[C@@H](NC(=O)Cc3cccs3)[C@H]2SC1 [Cephalothin, reference compound]
MIC ([1]; Klebsiella pneumoniae): 2 µg/mL (≈ 5.04 µM)
MIC [2]: 8 µg/mL (≈ 20.2 µM)
MIC [3]: > 256 µg/mL
MIC ([4]; Staphylococcus epidermidis): 0.25 µg/mL (≈ 0.631 µM)
MIC ([5]; Pseudomonas aeruginosa): > 256 µg/mL
MIC ([6]; Serratia): > 256 µg/mL
MIC ([7]; Enterobacter cloacae): > 256 µg/mL
MIC [8, 47]: 16 µg/mL (≈ 40.4 µM)
MIC ([9]; Morganella morganii): > 256 µg/mL
MIC ([10]; Staphylococcus aureus): 32 µg/mL (≈ 80.7 µM)
MIC ([11]; Staphylococcus aureus): ≤ 0.12 µg/mL
MIC [12]: 16 µg/mL (≈ 40.4 µM)
MIC ([13]; Acinetobacter calcoaceticus): > 256 µg/mL
MIC ([14]; Staphylococcus aureus): 32 µg/mL (≈ 80.7 µM)
MIC [15]: 8 µg/mL (≈ 20.2 µM)
MIC ([16]; Klebsiella pneumoniae): 1 µg/mL (≈ 2.52 µM)
MIC ([17]; Klebsiella oxytoca): > 256 µg/mL
MIC ([18]; Pseudomonas aeruginosa): > 256 µg/mL
MIC (Enterococcus VGH 84-65; Enterococcus): 32 µg/mL (≈ 80.7 µM)
MIC [19]: 8 µg/mL (≈ 20.2 µM)
MIC ([20]; Staphylococcus saprophyticus): 0.25 µg/mL (≈ 0.631 µM)
MIC ([21]; Enterobacter cloacae): > 256 µg/mL
MIC ([22]; Staphylococcus aureus): ≤ 0.12 µg/mL
MIC ([23]; Serratia): > 256 µg/mL
MIC ([24]; Staphylococcus aureus): 0.25 µg/mL (≈ 0.631 µM)
MIC ([25]; Staphylococcus epidermidis): ≤ 0.12 µg/mL
MIC ([26]; Morganella morganii): > 256 µg/mL
MIC [27]: 4 µg/mL (≈ 10.1 µM)

Cc1snnc1SCC1=C(C(=O)O)N2C(=O)[C@@H](NC(=O)Cc3cccs3)[C@H]2SC1 [Example 8, (6R-trans)-3-[[(5-Methyl-1,2,3-thiadiazol-4-yl)thio]methyl]-8-oxo-7-[(2-thienylacetyl)amino]-5-thia-1-azabicyclo[4.2.0]oct-2-ene-2-carboxylic acid]
MIC [1, 28]: 32 µg/mL (≈ 68.3 µM)
MIC [2]: 32 µg/mL (≈ 68.3 µM)
MIC [3, 43]: 256 µg/mL (≈ 546 µM)
MIC [4, 29]: 2 µg/mL (≈ 4.27 µM)
MIC [5, 44]: > 256 µg/mL
MIC [6, 45]: > 256 µg/mL
MIC [7, 46]: > 256 µg/mL
MIC [8, 47]: 64 µg/mL (≈ 137 µM)
MIC [9, 48]: > 256 µg/mL
MIC [10, 30]: 32 µg/mL (≈ 68.3 µM)
MIC [11, 31]: 1 µg/mL (≈ 2.13 µM)
MIC [12]: 64 µg/mL (≈ 137 µM)
MIC [13, 32]: > 256 µg/mL
MIC [14, 33]: 32 µg/mL (≈ 68.3 µM)
MIC [15]: 64 µg/mL (≈ 137 µM)
MIC [16, 34]: 8 µg/mL (≈ 17.1 µM)
MIC [17, 35]: 256 µg/mL (≈ 546 µM)
MIC [18, 49]: > 256 µg/mL
MIC (Enterococcus VGH 84-65; [36]): 32 µg/mL (≈ 68.3 µM)
MIC [19]: 32 µg/mL (≈ 68.3 µM)
MIC [20, 37]: 1 µg/mL (≈ 2.13 µM)
MIC [21, 50]: > 256 µg/mL
MIC [22, 38]: ≤ 0.12 µg/mL
MIC [23, 39]: > 256 µg/mL
MIC [24, 40]: 0.5 µg/mL (≈ 1.07 µM)
MIC [25, 41]: ≤ 0.12 µg/mL
MIC [26, 51]: > 256 µg/mL
MIC [27, 42]: 2 µg/mL (≈ 4.27 µM)
